The values below come from patent US20210395239A1 (Hoffmann-La Roche Inc., priority 2018, published 2021).

Each structure is given as a SMILES string.

The target in this test is T1, human TLR8 (Homo sapiens, UniProt Q9NR97).
T1 construct: host or cells: HEK293 (HEK-Blue hTLR8)
T1 sequence (Q9NR97 27-1041): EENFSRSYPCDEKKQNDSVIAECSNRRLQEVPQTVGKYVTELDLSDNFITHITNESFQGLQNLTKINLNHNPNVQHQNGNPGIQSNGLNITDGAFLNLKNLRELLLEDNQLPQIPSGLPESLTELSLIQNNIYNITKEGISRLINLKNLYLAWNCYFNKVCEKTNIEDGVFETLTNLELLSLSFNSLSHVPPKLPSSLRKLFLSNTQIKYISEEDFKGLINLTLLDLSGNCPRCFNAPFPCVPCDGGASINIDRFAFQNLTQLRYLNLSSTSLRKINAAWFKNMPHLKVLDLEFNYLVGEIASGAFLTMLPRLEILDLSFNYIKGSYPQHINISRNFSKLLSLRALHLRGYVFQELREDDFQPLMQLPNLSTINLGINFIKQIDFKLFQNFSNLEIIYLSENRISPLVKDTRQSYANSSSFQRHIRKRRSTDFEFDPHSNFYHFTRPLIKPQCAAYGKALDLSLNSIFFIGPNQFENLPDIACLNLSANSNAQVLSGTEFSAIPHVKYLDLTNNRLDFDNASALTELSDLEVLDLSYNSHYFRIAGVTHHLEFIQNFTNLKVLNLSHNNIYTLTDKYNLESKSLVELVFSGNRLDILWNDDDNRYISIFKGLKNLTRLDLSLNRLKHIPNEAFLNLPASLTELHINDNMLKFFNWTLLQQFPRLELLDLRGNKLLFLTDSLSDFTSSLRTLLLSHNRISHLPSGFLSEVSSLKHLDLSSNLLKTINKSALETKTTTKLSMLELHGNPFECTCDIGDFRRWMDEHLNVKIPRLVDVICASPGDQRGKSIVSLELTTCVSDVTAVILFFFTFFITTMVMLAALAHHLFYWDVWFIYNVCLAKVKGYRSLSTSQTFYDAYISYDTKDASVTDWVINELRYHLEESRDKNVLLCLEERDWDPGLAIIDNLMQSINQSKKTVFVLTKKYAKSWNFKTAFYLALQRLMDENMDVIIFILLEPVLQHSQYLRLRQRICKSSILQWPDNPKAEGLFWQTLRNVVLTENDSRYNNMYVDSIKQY
Kind of test: HEK293-Blue-hTLR-8 cells assay (SEAP reporter, R848 stimulation). The following applies: HEK293-Blue-hTLR8 cells, R848, 20 hrs; read-out: HEK/hTLR8 IC50. The class given is cell-based. The method, boiled down:
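HEK293-Blue-hTLR8 cells (NF-κB/AP-1-driven SEAP) incubated 20 h at 37° C with serially diluted compound (1% DMSO) plus R848 stimulation. Supernatant SEAP measured with QUANTI-Blue, 2 h at 37° C, absorbance 620–655 nm.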
In the case of `C[C@@H]1CN(c2ccc(C#N)c3ncccc23)C[C@H](CN2CCN(c3ccc([C@@H]4CNCCO4)cc3)CC2)O1` [Example 19, 5-[(2R,6S)-2-methyl-6-[[4-[4-[(2R)-morpholin-2-yl]phenyl]piperazin-1-yl]methyl]morpholin-4-yl]quinoline-8-carbonitrile], the IC50 was 12 nM.

As for `C[C@@H]1CN(c2ccc(C#N)c3ncccc23)C[C@H](CN2CCN(c3ccc([C@H]4CNCCO4)cc3)CC2)O1` [Example 20, 5-[(2R,6S)-2-methyl-6-[[4-[4-[(2S)-morpholin-2-yl]phenyl]piperazin-1-yl]methyl]morpholin-4-yl]quinoline-8-carbonitrile], the IC50 worked out at 10 nM.

`C[C@@H]1CN(c2ccc(C#N)c3ncccc23)C[C@H](CN2CCN(c3cc(N4CCN(C)CC4)ncn3)CC2)O1` [Example 21, 5-[(2R,6S)-2-methyl-6-[[4-[6-(4-methylpiperazin-1-yl)pyrimidin-4-yl]piperazin-1-yl]methyl]morpholin-4-yl]quinoline-8-carbonitrile]: the IC50 came to 10 nM.

Regarding `C[C@@H]1CN(c2ccc(C#N)c3ncccc23)C[C@H](CN2CCN(c3ccnc(N4CCN(C)CC4)n3)CC2)O1` [Example 22, 5-((2R,6S)-2-methyl-6-((4-(2-(4-methylpiperazin-1-yl)pyrimidin-4-yl)piperazin-1-yl)methyl)morpholino)quinoline-8-carbonitrile], the IC50 was found to be 3 nM.

For the compound `C[C@@H]1CN(c2ccc(C#N)c3ncccc23)C[C@H](CN2CCN(c3ccnc(N4CC(N)C4)n3)CC2)O1` [Example 23, 5-[(2S,6R)-2-[[4-[2-(3-aminoazetidin-1-yl)pyrimidin-4-yl]piperazin-1-yl]methyl]-6-methyl-morpholin-4-yl]quinoline-8-carbonitrile], the IC50 came to 18 nM.

`C[C@@H]1CN(c2ccc(C#N)c3ncccc23)C[C@H](CN2CCN(c3ccnc(N[C@H]4CNC[C@H]4F)n3)CC2)O1` [Example 24, 5-[(2S,6R)-2-[[4-[2-[[(3S,4R)-4-fluoropyrrolidin-3-yl]amino]pyrimidin-4-yl]piperazin-1-yl]methyl]-6-methyl-morpholin-4-yl]quinoline-8-carbonitrile]: the IC50 is 11 nM.

With `C[C@@H]1CN(c2ccc(C#N)c3ncccc23)C[C@H](CN2CCN(c3ccnc(N4CCNCC(O)C4)n3)CC2)O1` (stereo partly drawn) [Example 25, 5-[(2S,6R)-2-[[4-[2-(6-hydroxy-1,4-diazepan-1-yl)pyrimidin-4-yl]piperazin-1-yl]methyl]-6-methyl-morpholin-4-yl]quinoline-8-carbonitrile], the IC50 is 7 nM.

As to `CO[C@H]1CN(c2nccc(N3CCN(C[C@H]4CN(c5ccc(C#N)c6ncccc56)C[C@@H](C)O4)CC3)n2)C[C@@H]1N` [Example 26, 5-[(2S,6R)-2-[[4-[2-trans-(3-amino-4-methoxy-pyrrolidin-1-yl)pyrimidin-4-yl]piperazin-1-yl]methyl]-6-methyl-morpholin-4-yl]quinoline-8-carbonitrile], the IC50 came to 3 nM.

For `C[C@@H]1CN(c2ccc(C#N)c3ncccc23)C[C@H](CN2CCN(c3ccnc(N4CCC(N)CC4)n3)CC2)O1` [Example 27, 5-[(2S,6R)-2-[[4-[2-(4-amino-1-piperidyl)pyrimidin-4-yl]piperazin-1-yl]methyl]-6-methyl-morpholin-4-yl]quinoline-8-carbonitrile], the IC50 turned out to be 3 nM.

Turning to `C[C@@H]1CN(c2ccc(C#N)c3ncccc23)C[C@H](CN2CCN(c3ccnc(NC4CNC4)n3)CC2)O1` [Example 28, 5-[(2S,6R)-2-[[4-[2-(azetidin-3-ylamino)pyrimidin-4-yl]piperazin-1-yl]methyl]-6-methyl-morpholin-4-yl]quinoline-8-carbonitrile], the IC50 came out at 4 nM.

`C[C@@H]1CN(c2ccc(C#N)c3ncccc23)C[C@H](CN2CCN(c3ccnc(N4CCN[C@@H](CO)C4)n3)CC2)O1` [Example 29, 5-[(2S,6R)-2-[[4-[2-[(3R)-3-(hydroxymethyl)piperazin-1-yl]pyrimidin-4-yl]piperazin-1-yl]methyl]-6-methyl-morpholin-4-yl]quinoline-8-carbonitrile]: the IC50 is 10 nM.

`C[C@@H]1CN(c2ccc(C#N)c3ncccc23)C[C@H](CN2CCN(c3ccnc(OCCN(C)C)n3)CC2)O1` [Example 30, 5-[(2S,6R)-2-[[4-[2-[2-(dimethylamino)ethoxy]pyrimidin-4-yl]piperazin-1-yl]methyl]-6-methyl-morpholin-4-yl]quinoline-8-carbonitrile]: the IC50 amounted to 6 nM.

Consider `C[C@@H]1CN(c2ccc(C#N)c3ncccc23)C[C@H](CN2CCN(c3ccnc(N4CCN(C(=O)[C@@H]5CCCN5)CC4)n3)CC2)O1` [Example 31, 5-[(2R,6S)-2-methyl-6-[[4-[2-[4-[(2S)-pyrrolidine-2-carbonyl]piperazin-1-yl]pyrimidin-4-yl]piperazin-1-yl]methyl]morpholin-4-yl]quinoline-8-carbonitrile], for which the IC50 came out at 5 nM.

For `C[C@@H]1CN(c2ccc(C#N)c3ncccc23)C[C@H](CN2CCN(c3ccnc(N4CCN(C(=O)CN(C)C)CC4)n3)CC2)O1` [Example 32, 5-[(2S,6R)-2-[[4-[2-[4-[2-(dimethylamino)acetyl]piperazin-1-yl]pyrimidin-4-yl]piperazin-1-yl]methyl]-6-methyl-morpholin-4-yl]quinoline-8-carbonitrile], the IC50 is 3 nM.

In the case of `C[C@@H]1CN(c2ccc(C#N)c3ncccc23)C[C@H](CN2CCN(c3cccc(N4CCN(C)CC4)n3)CC2)O1` [Example 33, 5-[(2R,6S)-2-methyl-6-[[4-[6-(4-methylpiperazin-1-yl)-2-pyridyl]piperazin-1-yl]methyl]morpholin-4-yl]quinoline-8-carbonitrile], the IC50 came out at 7 nM.

As for `C[C@@H]1CN(c2ccc(C#N)c3ncccc23)C[C@H](CN2CCN(c3ccnc(N4CCN(C(=O)C5CCN5)CC4)n3)CC2)O1` (stereo partly drawn) [Example 34, 5-[(2S,6R)-2-[[4-[2-[4-(azetidine-2-carbonyl)piperazin-1-yl]pyrimidin-4-yl]piperazin-1-yl]methyl]-6-methyl-morpholin-4-yl]quinoline-8-carbonitrile], the IC50 was determined as 4 nM.

Turning to `C[C@@H]1CN(c2ccc(C#N)c3ncccc23)C[C@H](CN2CCN(c3cccc(N[C@H]4CNC[C@@H]4F)n3)CC2)O1` [Example 35, 5-[(2S,6R)-2-[[4-[6-[[(3S,4S)-4-fluoropyrrolidin-3-yl]amino]-2-pyridyl]piperazin-1-yl]methyl]-6-methyl-morpholin-4-yl]quinoline-8-carbonitrile], the IC50 was found to be 33 nM.

For `C[C@@H]1CN(c2ccc(C#N)c3ncccc23)C[C@H](CN2CCN(c3cccc(N4CCC(N)CC4)n3)CC2)O1` [Example 36, 5-[(2S,6R)-2-[[4-[6-(4-amino-1-piperidyl)-2-pyridyl]piperazin-1-yl]methyl]-6-methyl-morpholin-4-yl]quinoline-8-carbonitrile], the IC50 worked out at 11 nM.

Take `C[C@@H]1CN(c2ccc(C#N)c3ncccc23)C[C@H](CN2CCN(c3cccc(N[C@H]4CNC[C@H]4F)n3)CC2)O1` [Example 37, 5-[(2S,6R)-2-[[4-[6-[[(3S,4R)-4-fluoropyrrolidin-3-yl]amino]-2-pyridyl]piperazin-1-yl]methyl]-6-methyl-morpholin-4-yl]quinoline-8-carbonitrile]: the IC50 turned out to be 30 nM.

`C[C@@H]1CN(c2ccc(C#N)c3ncccc23)C[C@H](CN2CCN(c3cccc(NC4CNC4)n3)CC2)O1` [Example 38]: the IC50 was 11 nM.
